According to patent publication US20240024273A1, “TOPICAL ADMINISTRATION OF 2-(DIETHYLAMINO)ETHYL 2-(4-ISOBUTYLPHENYL)PROPRIONATE FOR TREATMENT OF DISEASES” (TECHFIELDS PHARMA CO., LTD., priority 2020, published 2024):
Values joined by “and” are separate entries in the source; they are usually repeats but may differ in a detail not shown here. Identical values can stand only once.

Assays:
[1] = test system: osteoarthritis of the knee; assay: Second Phase 2 study: WOMAC stiffness subscale score; assay type: in vivo, human
Text: For subjects with bilateral knee pain, both knees will be treated, but the most symptomatic knee (ie, the most painful knee as measured by the Western Ontario and McMaster University Osteoarthritis Index [WOMAC® 3.1] pain subscale score at Screening) will be designated as the target knee for efficacy analyses. For subjects with unilateral knee pain, only the symptomatic (target) knee will be treated.
The VAS version of the WOMAC will be used for the Primary and Secondary Efficacy Endpoints. Efficacy endpoints will be assessed at Screening and Baseline (Day 1) and at the Week 2, Week 4, Week 8, and Week 12/EOS visits.
4.9.2. Secondary Efficacy Endpoints: • 1. Change from Baseline in the WOMAC (VAS) pain subscale score for the target knee at 2, 8, and 12 weeks of treatment; • 2. Change from Baseline in the WOMAC (VAS) stiffness subscale scores for the target knee and WOMAC (VAS) functional ability subscale scores at 2, 4, 8, and 12 weeks of treatment; • 3. Change from Baseline in the overall WOMAC (VAS) score at 2, 4, 8, and 12 weeks of treatment; • 4. Subject's global assessment of disease status of the target knee at 2, 4, 8, and 12 weeks of treatment; • 5. Subject's global assessment of response to therapy of the target knee at 2, 4, 8, and 12 weeks of treatment; • 6. Amount of rescue medication (acetaminophen) consumed per day for target knee pain.
The Secondary Efficacy Endpoints, change from Baseline in the WOMAC subscale scores for pain, stiffness, and functional ability, and overall WOMAC score at 2, 4, 8, and 12 weeks of treatment, will be analyzed using the same methods as for the Primary Efficacy Endpoint.

[2] = test system: osteoarthritis of the knee; assay: Second Phase 2 study: Investigator's global assessment of disease status (IGADS); assay type: in vivo, human; conditions: Week 12; for IGADS: Good and Very good / IGADS: Poor and Very Poor / IGADS: fair: first 130 subjects; for IGADS, Good and Very good / IGADS, Poor and Very Poor / IGADS, fair: all subjects
[3] = 17.5 mg/knee BID, Week 12, first 130 subjects
[4] = Week 12, 4.375 mg/knee BID (n = 23), first 130 subjects
[5] = Week 12, 8.75 mg/knee BID (n = 24), first 130 subjects
[6] = Week 12, 17.5 mg/knee BID (n = 19), first 130 subjects
[7] = all subjects, 4.375 mg/knee BID, n = 49, Week 12
[8] = all subjects, 8.75 mg/knee BID, n = 54, Week 12
[9] = all subjects, 17.5 mg/knee BID, n = 52, Week 12
[10] = Week 12, oral, 3 × 400 mg (n = 20), first 130 subjects
[11] = all subjects, Oral Ibuprofen 3 × 400 mg, n = 48, Week 12
[12] = Oral Ibuprofen 3 × 400 mg, n = 48

CCN(CC)CCOC(=O)C(C)c1ccc(CC(C)C)cc1 (stereo not drawn) [2-(diethylamino)ethyl 2-(4-isobutylphenyl)propionate]
WOMAC stiffness, difference from oral ibuprofen [1, 3]: −12.4 mm
WOMAC stiffness, difference from placebo [1, 3]: −19.1 mm
WOMAC Joint Stiffness Subscale Score, Day 1, Avg. ([1]; Avg. of all patients (blinded), Low Dose (2 spray/knee, 8.75 mg/knee) Cohort, Day 1): 64.2
WOMAC Joint Stiffness Subscale Score, Week 2, Avg. ([1]; Avg. of all patients (blinded), Low Dose (2 spray/knee, 8.75 mg/knee) Cohort, Week 2): 52.5
WOMAC Joint Stiffness Subscale Score, Week 4, Avg. ([1]; Avg. of all patients (blinded), Low Dose (2 spray/knee, 8.75 mg/knee) Cohort, Week 4): 45.7
WOMAC Joint Stiffness Subscale Score, Week 8, Avg. ([1]; Avg. of all patients (blinded), Low Dose (2 spray/knee, 8.75 mg/knee) Cohort, Week 8): 42.3
WOMAC Joint Stiffness Subscale Score, Week 12, Avg. ([1]; Avg. of all patients (blinded), Low Dose (2 spray/knee, 8.75 mg/knee) Cohort, Week 12): 41.8
WOMAC Stiffness Subscale Scores, Baseline (LS Mean) ([1]; 4.375 mg/knee BID (n = 23), first 130 subjects): 50.2 mm
WOMAC Stiffness Subscale Scores, Baseline (LS Mean) ([1]; 8.75 mg/knee BID (n = 24), first 130 subjects): 52.4 mm
WOMAC Stiffness Subscale Scores, Baseline (LS Mean) ([1]; 17.5 mg/knee BID (n = 19), first 130 subjects): 57.6 mm
WOMAC Stiffness Subscale Scores, % of improvement from Oral Ibuprofen [1, 4]: 0.6%
WOMAC Stiffness Subscale Scores, % of improvement from Placebo [1, 4]: −9.7%
WOMAC Stiffness Subscale Scores, % of improvement from baseline [1, 4]: −35.9%
WOMAC Stiffness Subscale Scores, Changes from Baseline (LS Mean) [1, 4]: −18.0 mm
WOMAC Stiffness Subscale Scores, Different from placebo (LS Mean) [1, 4]: −4.0 mm
WOMAC Stiffness Subscale Scores, Week 12 (LS Mean) [1, 4]: 32.2 mm
WOMAC Stiffness Subscale Scores, % of improvement from Oral Ibuprofen [1, 5]: −2.4%
WOMAC Stiffness Subscale Scores, % of improvement from Placebo [1, 5]: −12.7%
WOMAC Stiffness Subscale Scores, % of improvement from baseline [1, 5]: −38.9%
WOMAC Stiffness Subscale Scores, Changes from Baseline (LS Mean) [1, 5]: −20.4 mm
WOMAC Stiffness Subscale Scores, Different from oral ibuprofen (LS Mean) [1, 5]: 0.2 mm
WOMAC Stiffness Subscale Scores, Different from placebo (LS Mean) [1, 5]: −6.4 mm
WOMAC Stiffness Subscale Scores, Week 12 (LS Mean) [1, 5]: 32.0 mm
WOMAC Stiffness Subscale Scores, % of improvement from Oral Ibuprofen [1, 6]: −21.0%
WOMAC Stiffness Subscale Scores, % of improvement from Placebo [1, 6]: −31.3%
WOMAC Stiffness Subscale Scores, % of improvement from baseline [1, 6]: −57.5%
WOMAC Stiffness Subscale Scores, Changes from Baseline (LS Mean) [1, 6]: −33.1 mm
WOMAC Stiffness Subscale Scores, Different from oral ibuprofen (LS Mean) [1, 6]: −12.4 mm
WOMAC Stiffness Subscale Scores, Different from placebo (LS Mean) [1, 6]: −19.1 mm
WOMAC Stiffness Subscale Scores, Week 12 (LS Mean) [1, 6]: 24.6 mm
WOMAC Stiffness Subscale Scores, % of improvement from Oral Ibuprofen [1, 7]: 4.7%
WOMAC Stiffness Subscale Scores, % of improvement from Placebo [1, 7]: −2.2%
WOMAC Stiffness Subscale Scores, % of improvement from baseline [1, 7]: −34.6%
WOMAC Stiffness Subscale Scores, Changes from Baseline (LS Mean) [1, 7]: −16.9 mm
WOMAC Stiffness Subscale Scores, Week 12 (LS Mean) [1, 7]: 31.9 mm
WOMAC Stiffness Subscale Scores, % of improvement from Oral Ibuprofen [1, 8]: −2.8%
WOMAC Stiffness Subscale Scores, % of improvement from Placebo [1, 8]: −9.7%
WOMAC Stiffness Subscale Scores, % of improvement from baseline [1, 8]: −42.1%
WOMAC Stiffness Subscale Scores, Changes from Baseline (LS Mean) [1, 8]: −23.3 mm
WOMAC Stiffness Subscale Scores, Different from oral ibuprofen (LS Mean) [1, 8]: −3.0 mm
WOMAC Stiffness Subscale Scores, Different from placebo (LS Mean) [1, 8]: −6.7 mm
WOMAC Stiffness Subscale Scores, Week 12 (LS Mean) [1, 8]: 32.0 mm
WOMAC Stiffness Subscale Scores, % of improvement from Oral Ibuprofen [1, 9]: −8.0%
WOMAC Stiffness Subscale Scores, % of improvement from Placebo [1, 9]: −14.9%
WOMAC Stiffness Subscale Scores, % of improvement from baseline [1, 9]: −47.3%
WOMAC Stiffness Subscale Scores, Changes from Baseline (LS Mean) [1, 9]: −25.2 mm
WOMAC Stiffness Subscale Scores, Different from oral ibuprofen (LS Mean) [1, 9]: −4.9 mm
WOMAC Stiffness Subscale Scores, Different from placebo (LS Mean) [1, 9]: −8.6 mm
WOMAC Stiffness Subscale Scores, Week 12 (LS Mean) [1, 9]: 28.1 mm
WOMAC Joint Stiffness Subscale Score, Week 4 ([1]; individual patient (blinded), Low Dose (2 spray/knee, 8.75 mg/knee) Cohort, Week 4): 59.5 and 62
IGADS: Good and Very good ([2]; 4.375 mg/knee BID (n = 23)): 43.5%
IGADS: Poor and Very Poor ([2]; 4.375 mg/knee BID (n = 23)): 4.3%
IGADS: fair ([2]; 4.375 mg/knee BID (n = 23)): 53.2%
IGADS: Good and Very good ([2]; 8.75 mg/knee BID (n = 24)): 41.7%
IGADS: Poor and Very Poor ([2]; 8.75 mg/knee BID (n = 24)): 4.2%
IGADS: fair ([2]; 8.75 mg/knee BID (n = 24)): 54.2%
IGADS: Good and Very good ([2]; 17.5 mg/knee BID (n = 19)): 68.4%
IGADS: Poor and Very Poor ([2]; 17.5 mg/knee BID (n = 19)): 0%
IGADS: fair ([2]; 17.5 mg/knee BID (n = 19)): 31.6%
IGADS, Good and Very good ([2]; 4.375 mg/knee BID, n = 49): 40.8%
IGADS, Poor and Very Poor ([2]; 4.375 mg/knee BID, n = 49): 8.2%
IGADS, fair ([2]; 4.375 mg/knee BID, n = 49): 51.0%
IGADS, Good and Very good ([2]; 8.75 mg/knee BID, n = 54): 48.1%
IGADS, Poor and Very Poor ([2]; 8.75 mg/knee BID, n = 54): 7.4%
IGADS, fair ([2]; 8.75 mg/knee BID, n = 54): 44.4%
IGADS, Good and Very good ([2]; 17.5 mg/knee BID, n = 52): 63.5%
IGADS, Poor and Very Poor ([2]; 17.5 mg/knee BID, n = 52): 1.9%
IGADS, fair ([2]; 17.5 mg/knee BID, n = 52): 34.6%

CC(C)Cc1ccc(C(C)C(=O)O)cc1 (stereo not drawn) [Ibuprofen, 2-(4-isobutylphenyl)propionic acid, reference compound]
WOMAC Stiffness Subscale Scores, Baseline (LS Mean) ([1]; oral, 3 × 400 mg (n = 20), first 130 subjects): 56.4 mm
WOMAC Stiffness Subscale Scores, % of improvement from Placebo [1, 10]: −10.3%
WOMAC Stiffness Subscale Scores, Changes from Baseline (LS Mean) [1, 10]: −20.6 mm
WOMAC Stiffness Subscale Scores, Different from placebo (LS Mean) [1, 10]: −6.6 mm
WOMAC Stiffness Subscale Scores, Week 12 (LS Mean) [1, 10]: 35.8 mm
WOMAC Stiffness Subscale Scores, % of improvement from Placebo [1, 11]: −6.9%
WOMAC Stiffness Subscale Scores, % of improvement from baseline [1, 11]: −39.3%
WOMAC Stiffness Subscale Scores, Changes from Baseline (LS Mean) [1, 11]: −20.3 mm
WOMAC Stiffness Subscale Scores, Week 12 (LS Mean) [1, 11]: 31.3 mm
WOMAC Stiffness, difference vs. Placebo ([1]; all subjects, Oral Ibuprofen 3 × 400 mg, n = 48 vs. Placebo n = 48): −3.8 mm
WOMAC stiffness, difference from placebo ([1]; oral 3×400 mg, first 130 subjects): −6.7 mm
IGADS: Good and Very good ([2]; oral, 3 x 400 mg (n = 20)): 40.0%
IGADS: Poor and Very Poor ([2]; oral, 3 x 400 mg (n = 20)): 15.0%
IGADS: fair ([2]; oral, 3 x 400 mg (n = 20)): 45.0%
IGADS, Good and Very good [2, 12]: 39.6%
IGADS, Poor and Very Poor [2, 12]: 4.1%
